Laboratory results from the CheMixHub ionic liquid set.
Where “and” joins values, the source holds several entries; their conditions need not be identical. Equal values may be shown once. ± gives the uncertainty stated by the source.

Experiment: xn = mol fraction of the nth substance listed

CC(=O)[O-].CCCC[N+]1(C)CCCC1 + O
298.15 K, 101.3 kPa, frequency 100 MHz
Details	electrical conductivity [S/m]
x1 = 0.017	2.62 ± 0.26
x1 = 0.163	0.985 ± 0.099

CCCCCCCCCCCCCCCC[n+]1ccccc1.O=C([O-])C(O)c1ccccc1 + O
electrical conductivity [S/m], 101 kPa
Details	293.15 K	298.15 K	303.15 K	308.15 K	313.15 K
x1 = 1.08e-06	0.00061 ± 0.00098	0.00068 ± 0.0011	0.00076 ± 0.0012	0.00083 ± 0.0013	0.0009 ± 0.0015
x1 = 1.98e-06	0.001 ± 0.001	0.0012 ± 0.0012	0.0013 ± 0.0013	0.0014 ± 0.0014	0.0016 ± 0.0015
x1 = 2.88e-06	0.00147 ± 0.00099	0.0016 ± 0.0011	0.0018 ± 0.0012	0.002 ± 0.0014	0.0022 ± 0.0015
x1 = 3.96e-06	0.0019 ± 0.001	0.0022 ± 0.0011	0.0024 ± 0.0013	0.0026 ± 0.0014	0.0029 ± 0.0015
x1 = 4.69e-06	0.0023 ± 0.001	0.0026 ± 0.0011	0.0029 ± 0.0013	0.0031 ± 0.0014	0.0035 ± 0.0015
x1 = 5.95e-06	0.00281 ± 0.00098	0.0032 ± 0.0011	0.0035 ± 0.0012	0.0038 ± 0.0013	0.0042 ± 0.0015
x1 = 7.21e-06	0.00341 ± 0.00095	0.0038 ± 0.0011	0.0042 ± 0.0012	0.0046 ± 0.0013	0.0051 ± 0.0015
x1 = 8.83e-06	0.00406 ± 0.00092	0.0046 ± 0.001	0.005 ± 0.0011	0.0055 ± 0.0013	0.006 ± 0.0014
x1 = 1.045e-05	0.00469 ± 0.00089	0.0053 ± 0.001	0.0058 ± 0.0011	0.0065 ± 0.0012	0.0071 ± 0.0014
x1 = 1.207e-05	0.00516 ± 0.00088	0.0058 ± 0.001	0.0064 ± 0.0011	0.0071 ± 0.0012	0.0079 ± 0.0014
x1 = 1.351e-05	0.00562 ± 0.00086	0.00631 ± 0.00097	0.007 ± 0.0011	0.0077 ± 0.0012	0.0085 ± 0.0013
x1 = 1.478e-05	0.00603 ± 0.0009	0.0068 ± 0.001	0.0075 ± 0.0011	0.0083 ± 0.0012	0.0092 ± 0.0013
x1 = 1.622e-05	0.00644 ± 0.00092	0.0072 ± 0.001	0.008 ± 0.0011	0.0089 ± 0.0013	0.0098 ± 0.0014
x1 = 1.766e-05	0.00687 ± 0.00093	0.0077 ± 0.001	0.0085 ± 0.0012	0.0094 ± 0.0013	0.0104 ± 0.0014

CCCCCCCCCCCC[N+]1(C)CCCC1.O=C([O-])c1ccccc1O + O
100 kPa
Details	electrical conductivity [S/m]
298.15 K, x1 = 3.592e-05	0.00892 ± 0.00049
298.15 K, x1 = 3.961e-05	0.00933 ± 0.00052
298.15 K, x1 = 4.883e-05	0.0111 ± 0.00061
308.15 K, x1 = 4.883e-05	0.0151 ± 0.00083
318.15 K, x1 = 3.592e-05	0.0144 ± 0.00079
318.15 K, x1 = 5.39e-05	0.02 ± 0.0011
318.15 K, x1 = 5.759e-05	0.0215 ± 0.0012
328.15 K, x1 = 5.39e-05	0.0254 ± 0.0014
328.15 K, x1 = 5.759e-05	0.0262 ± 0.0014

CCCCCC[n+]1ccn(C)c1.F[B-](F)(F)F + O
Details	viscosity [mPa·s]
298.15 K, 100 kPa, x1 = 0.0153	2.79 ± 0.14

CCOCC[n+]1ccn(C)c1.C[C@@H](O)[C@H](N)C(=O)[O-] + O
100 kPa
Details	viscosity
298.15 K, x1 = 0.619	1040 ± 110 mPa·s
313.15 K, x1 = 0.3647	245 ± 13 mPa·s
323.15 K, x1 = 0.3158	118.5 ± 3.6 mPa·s
323.15 K, x1 = 0.3647	125.5 ± 4.1 mPa·s
328.15 K, x1 = 0.3158	96.1 ± 2.3 mPa·s and 99.5 ± 2.5 mPa·s
328.15 K, x1 = 0.5081	106 ± 2.9 mPa·s
328.15 K, x1 = 1	115.4 ± 3.4 mPa·s
